A word on the IC50: it is the concentration that inhibits the measured activity by half.

Nine compounds from patent publication US10442808B2, “Pyrazolo pyrimidine derivatives and their use as MALT1 inhbitors” (NOVARTIS AG, priority 2014, dated 2019) can be followed below.

Test [1] concerns the target C-domain of MALT1 (amino acids 329-824) (Homo sapiens (Human), UniProt Q9UDY8). The experiment in a line: MALT1 biochemical assay (fluorescence lifetime enzyme activity assay). The settings on record: 60 min preincubation, 2.5 nM enzyme, 1 μM substrate. How it is done:
The readout parameter is the increase of fluorescence lifetime over time, proportional to enzyme activity.
The assay employs a short peptide substrate labeled with the single fluorophore PT14 as a fluorescence lifetime probe sensitive to the cleavage state of the substrate (PT14: 6-(9-oxo-9H-acridin-10-yl)-hexanoate, AssayMetrics, UK). […] The assay buffer consists of 200 mM Tris/HCl at pH 7.5, 0.8 M Na citrate, 100 μM EGTA, 100 μM DTT and 0.05% (w/v) CHAPS. […] Test compounds were dissolved in 100% (v/v) DMSO or a mixture containing 90% (v/v) DMSO and 10% (v/v) H2O at a stock concentration of 100 mM. Serial dilutions of test compounds were prepared using either 100% (v/v) DMSO or a mixture containing 90% (v/v) DMSO and 10% (v/v) H2O.
The exponent, p, is the Hill coefficient.

In a further test the test system is IL2 promoter. The experiment in a line: Human IL2 promoter reporter gene assay (RGA) in Jurkat cells. The format is cell-based. Particulars: […], heading: IL2 reporter gene assay IC50, anti-CD28 mAb + PMA stimulation 5.5 h. The essentials: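 Transfected Jurkat clone K22 290_H23 (IL2 promoter reporter) was pre-incubated with compound 30 min at 37 °C. Stimulation used anti-CD28 mAb 15E8 at 3 μg/ml plus PMA at 1 μg/ml for 5.5 h. Read-out was luciferase bioluminescence (BriteLitePlus).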

Chain of C-domain of MALT1 (amino acids 329-824) (Q9UDY8 329-824): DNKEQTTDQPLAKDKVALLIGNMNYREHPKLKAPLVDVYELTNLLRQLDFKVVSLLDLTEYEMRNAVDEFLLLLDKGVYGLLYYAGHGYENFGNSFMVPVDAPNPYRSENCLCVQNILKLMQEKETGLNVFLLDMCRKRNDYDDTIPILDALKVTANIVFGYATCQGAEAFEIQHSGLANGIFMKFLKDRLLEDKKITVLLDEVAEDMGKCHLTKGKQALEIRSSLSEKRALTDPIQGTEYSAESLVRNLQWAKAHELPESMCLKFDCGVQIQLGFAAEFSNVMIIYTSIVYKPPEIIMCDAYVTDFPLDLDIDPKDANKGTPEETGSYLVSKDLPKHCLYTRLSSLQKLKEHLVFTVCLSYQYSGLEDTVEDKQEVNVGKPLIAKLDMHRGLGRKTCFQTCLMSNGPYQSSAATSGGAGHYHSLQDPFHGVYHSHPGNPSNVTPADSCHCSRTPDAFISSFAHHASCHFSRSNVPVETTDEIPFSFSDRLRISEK

Consider `CC(C)c1c(NC(=O)Nc2ccc(-c3ccnc(N)n3)c(Cl)c2)cnc2cc(Cl)nn12` [Example 23, 1-(4-(2-aminopyrimidin-4-yl)-3-chlorophenyl)-3-(2-chloro-7-isopropylpyrazolo[1,5-a]pyrimidin-6-yl)urea], for which the IC50 came out at 4 nM in test [1] and 526 nM in the test on IL2 promoter.
`Cc1cc(CO)nn1-c1ccc(NC(=O)Nc2cnc3cc(Cl)nn3c2C(C)C)cc1Cl` [Example 28, 1-(3-chloro-4-(3-(hydroxymethyl)-5-methyl-1H-pyrazol-1-yl)phenyl)-3-(2-chloro-7-isopropylpyrazolo[1,5-a]pyrimidin-6-yl)urea]: 9 nM corresponded to half-maximal inhibition in test [1] (IC50).
`CC(C)(C)OC(=O)N1CCOC(c2c(NC(=O)Nc3cnc(-n4nccn4)c(Cl)c3)cnc3cc(Cl)nn23)C1` (stereo not drawn) [Example 66, tert-butyl 2-(2-chloro-6-(3-(5-chloro-6-(2H-1,2,3-triazol-2-yl)pyridin-3-yl)ureido)pyrazolo[1,5-a]pyrimidin-7-yl)morpholine-4-carboxylate]: the IC50 in test [1] is 18 nM; with IL2 promoter, 28 nM.
In the same order, the values of `Cn1ccnc1-c1c(NC(=O)Nc2cnc(-n3nccn3)c(Cl)c2)cnc2cc(Cl)nn12` [Example 86, 1-(5-chloro-6-(2H-1,2,3-triazol-2-yl)pyridin-3-yl)-3-(2-chloro-7-(1-methyl-1H-imidazol-2-yl)pyrazolo[1,5-a]pyrimidin-6-yl)urea] are 80 nM and 44 nM.
For `C[C@H](O[C@H]1CCOC1)c1c(NC(=O)Nc2cnc(-n3nccn3)c(Cl)c2)cnc2cc(Cl)nn12` [Example 101, 1-(5-chloro-6-(2H-1,2,3-triazol-2-yl)pyridin-3-yl)-3-(2-chloro-7-((S)-1-(((S)-tetrahydrofuran-3-yl)oxy)ethyl)pyrazolo [1,5-a]pyrimidin-6-yl)urea], 5 nM corresponded to half-maximal inhibition in test [1] (IC50).
Same read-out and setting: with `C[C@H](O)c1c(NC(=O)Nc2ccnc(C(F)(F)F)c2)cnc2cc(Cl)nn12` [Example 114, (S)-1-(2-chloro-7-(1-hydroxyethyl)pyrazolo[1,5-a]pyrimidin-6-yl)-3-(2-(trifluoromethyl)pyridin-4-yl)urea] the figure was 7 nM; with `O=C(Nc1cnc(-n2nccn2)c(Cl)c1)Nc1cnc2cc(Cl)nn2c1C1CNCCO1` (stereo not drawn) [Example 115, 1-(5-chloro-6-(2H-1,2,3-triazol-2-yl)pyridin-3-yl)-3-(2-chloro-7-(morpholin-2-yl)pyrazolo[1,5-a]pyrimidin-6-yl)urea], 76 nM.
The same measure, in the same setting: with `CN[C@@H](C)c1c(NC(=O)Nc2cnc(-n3nccn3)c(Cl)c2)cnc2cc(Cl)nn12` [Example 119, (S)-1-(5-chloro-6-(2H-1,2,3-triazol-2-yl)pyridin-3-yl)-3-(2-chloro-7-(1-(methylamino)ethyl)pyrazolo[1,5-a]pyrimidin-6-yl)urea] the figure was 12 nM; with `O=C(Nc1cnc(-n2nccn2)c(Cl)c1)Nc1cnc2cc(Cl)nn2c1C1COCCN1` (stereo not drawn) [Example 123, 1-(5-chloro-6-(2H-1,2,3-triazol-2-yl)pyridin-3-yl)-3-(2-chloro-7-(morpholin-3-yl)pyrazolo[1,5-a]pyrimidin-6-yl)urea], 41 nM.
